Patent US20190358181A1, “METHODS FOR AUTISM SPECTRUM DISORDER PHARMACOTHERAPY” (priority 2017, published 2019)

Test system: 610 metabolites from 63 biochemical pathways
Test: Targeted broad-spectrum plasma metabolomic analysis (LC-MS/MS), paired pre-infusion vs post-infusion (2-days and 6-weeks)
Assay type: in vivo, human
Settings: for Linear Ratio / VIP Score / Z Abs / Z Score: plasma
Experimental: Targeted, broad-spectrum, plasma metabolomic analysis of 610 metabolites from 63 biochemical pathways was performed by high performance liquid chromatography and tandem mass spectrometry (LC-MS/MS) on the samples collected from patients in Example 1. Venous blood was collected between the hours of 8 am and 5 pm, at least 3 hours after the last meal, into lithium-heparin vacutainer tubes (BD #367884). Plasma was separated by centrifugation at 900 g×10 minutes at room temperature within one hour of collection. The resulting fresh lithium-heparin plasma was transferred to labeled 1.2 ml or 2.0 ml externally threaded cryotubes with a minimum headspace air gap for storage at −80° C. for analysis. Samples were analyzed on an AB SCIEX QTRAP 5500 triple quadrupole mass spectrometer equipped with a Turbo V electrospray ionization (ESI) source, Shimadzu LC-20A UHPLC system, and a PAL CTC autosampler. Typically, 90 μl of plasma was thawed on ice and transferred to a 1.7 ml Eppendorf tube. Five (5.0) μl of a cocktail containing 25-35 commercial stable isotope internal standards, and 5.0 μl of 57 stable isotope internal standards that were custom-synthesized in E. coli NCM3722, Caenorhabditis elegans N2, and Komagataella phaffii (ATCC 76273; formerly known as Pichia pastoris) by metabolic labeling with 13C-glucose and 13C-bicarbonate, were added, mixed, and incubated for 10 min at 20° C. to permit small molecules and vitamins in the internal standards to associate with plasma binding proteins. Macromolecules (protein, DNA, RNA, glycans, etc.) were precipitated by extraction with 4 volumes (400 μl) of cold (−20° C.), acetonitrile:methanol (50:50) (LCMS grade, Cat #LC015-2.5 and GC230-4, Burdick & Jackson, Honeywell), vortexed vigorously, and incubated on crushed ice for 10 min, then removed by centrifugation at 16,000 g×10 min at 4° C. The supernatants containing the extracted metabolites and internal standards in the resulting 40:40:20 solvent mix of acetonitrile:methanol:water were transferred to labeled cryotubes and stored at −80° C. for LCMS/MS analysis.
LC-MS/MS analysis was performed by scheduled multiple reaction monitoring (sMRM) under Analyst v1.6.2 software control in both negative and positive mode with rapid polarity switching (50 ms). Nitrogen was used for curtain gas (set to 30), collision gas (set to high), ion source gas 1 and 2 (set to 35). The source temperature was 500° C. Spray voltage was set to −4500 V in negative mode and 5500 V in positive mode. The values for Q1 and Q3 mass-to-charge ratios (m/z), declustering potential (DP), entrance potential (EP), collision energy (CE), and collision cell exit potential (CXP) were determined and optimized for each MRM for each metabolite. Ten microliters of extract was injected by PAL CTC autosampler via a 10 μl stainless steel loop into a 250 mm×2.0 mm, 4 μm polymer based NH2 HPLC column (Asahipak NH2P-40 2E, Showa Denko America, Inc., NY) held at 25° C. for chromatographic separation. The mobile phase was solvent A: 95% water with 20 mM (NH4)2CO3 (Sigma, Fluka Cat #74415-250G-F), 5% acetonitrile, and 38 mM NH4OH (Sigma, Fluka Cat #17837-100ML), final pH 9.75; solvent B: 100% acetonitrile. Separation was achieved using the following gradient: 0-3.5 min: 95% B, 3.6-8 min: 85% B, 8.1-13 min: 75% B, 13.5-35 min: 0% B, 36-46 min: 95% B, 46.1 min: end. The flow rate was 200 μl/min. Pump pressures ranged from 920-2600 psi over the course of the gradient. All the samples were kept at 4° C. during analysis. The chromatographic peaks were identified using MultiQuant (v3.0, Sciex), confirmed by manual inspection, and the peak areas integrated. […]

[1] = Branch Chain Amino Acid Metabolism, 2-days
[2] = Branch Chain Amino Acid Metabolism, 6-weeks
[3] = Chenodeoxyglycocholic acid, 6-weeks
[4] = Cholesterol, Cortisol, Non-Gonadal Steroid Metabolism, 6-weeks
[5] = Cholesterol, Cortisol, Non-Gonadal Steroid, 2-days
[6] = Cyclic adenosine monophosphate, 6-weeks
[7] = Deoxy guanosine diphosphate, 6-weeks
[8] = Eicosanoid and Resolvin Metabolism, 2-days
[9] = Endocannabinoid Metabolism, 2-days
[10] = Fatty Acid Oxidation and Synthesis, 2-days
[11] = Fatty Acid Oxidation and Synthesis, 6-weeks

`Cc1ccc(C(=O)Nc2ccc(S(=O)(=O)O)c3cc(S(=O)(=O)O)cc(S(=O)(=O)O)c23)cc1NC(=O)c1cccc(NC(=O)Nc2cccc(C(=O)Nc3cc(C(=O)Nc4ccc(S(=O)(=O)O)c5cc(S(=O)(=O)O)cc(S(=O)(=O)O)c45)ccc3C)c2)c1` [Suramin, suramin] was tested, and the “Fold Enrichment (Obs/Exp)” value [1] was 2.4, the “Fraction of Impact (VIP Score) Explained (% of 119.7)” value (shortened to “Fraction of Impact … (% of 119.7)”) [1] was 6% and the “Impact (Sum VIP Score)” value [1] was 7.3. For the same compound, the Increased [1] was 4, the “Observed Hits in the Top 61 Metabolites” value [1] was 4 and the Decreased [2] was 0. The “Fold Enrichment (Obs/Exp)” value [2] was 3.0, the “Fraction of Impact (VIP Score) Explained (% of 94.6)” value (shortened to “Fraction of Impact … (% of 94.6)”) [2] was 8% and the “Impact (Sum VIP Score)” value [2] was 7.4. For the same compound, the Increased [2] was 4, the “Observed Hits in the Top 48 Metabolites” value [2] was 4 and the Decreased (Cardiolipin Metabolism, 2-days) was 0. For the same compound, the “Fold Enrichment (Obs/Exp)” value (Cardiolipin Metabolism, 2-days) was 2.0, the “Fraction of Impact … (% of 119.7)” value (Cardiolipin Metabolism, 2-days) was 3% and the “Impact (Sum VIP Score)” value (Cardiolipin Metabolism, 2-days) was 3.1. The Increased (Cardiolipin Metabolism, 2-days) was 2, the “Observed Hits in the Top 61 Metabolites” value (Cardiolipin Metabolism, 2-days) was 2 and the Decreased (Ceramide Metabolism, 2-days) was 0. For the same compound, the “Fold Enrichment (Obs/Exp)” value (Ceramide Metabolism, 2-days) was 0.2, the “Fraction of Impact … (% of 119.7)” value (Ceramide Metabolism, 2-days) was 1% and the “Impact (Sum VIP Score)” value (Ceramide Metabolism, 2-days) was 1.5. For the same compound, the Increased (Ceramide Metabolism, 2-days) was 1, the “Observed Hits in the Top 61 Metabolites” value (Ceramide Metabolism, 2-days) was 1 and the “Linear Ratio” value (Chenodeoxycholic acid, 6-weeks) was 2.080. For the same compound, the “VIP Score” value (Chenodeoxycholic acid, 6-weeks) was 1.670, the “Z Abs” value (Chenodeoxycholic acid, 6-weeks) was 1.575 and the “Z Score” value (Chenodeoxycholic acid, 6-weeks) was 1.575. The “Linear Ratio” value [3] was 2.858, the “VIP Score” value [3] was 2.052 and the “Z Abs” value [3] was 1.650. For the same compound, the “Z Score” value [3] was 1.650, the Decreased [4] was 0 and the “Fold Enrichment (Obs/Exp)” value [4] was 1.1. The “Fraction of Impact … (% of 94.6)” value [4] was 4%, the “Impact (Sum VIP Score)” value [4] was 3.5 and the Increased [4] was 2. For the same compound, the “Observed Hits in the Top 48 Metabolites” value [4] was 2, the Decreased [5] was 0 and the “Fold Enrichment (Obs/Exp)” value [5] was 0.4. For the same compound, the “Fraction of Impact … (% of 119.7)” value [5] was 2%, the “Impact (Sum VIP Score)” value [5] was 1.8 and the Increased [5] was 1. The “Observed Hits in the Top 61 Metabolites” value [5] was 1, the “Linear Ratio” value (Cinnamoylglycine, 6-weeks) was 1.190 and the “VIP Score” value (Cinnamoylglycine, 6-weeks) was 1.790. For the same compound, the “Z Abs” value (Cinnamoylglycine, 6-weeks) was 2.218, the “Z Score” value (Cinnamoylglycine, 6-weeks) was 2.218 and the “Linear Ratio” value (Citric acid, 6-weeks) was 1.363. For the same compound, the “VIP Score” value (Citric acid, 6-weeks) was 2.410, the “Z Abs” value (Citric acid, 6-weeks) was 1.772 and the “Z Score” value (Citric acid, 6-weeks) was 1.772. For the same compound, the “Linear Ratio” value [6] was 0.701, the “VIP Score” value [6] was 1.962 and the “Z Abs” value [6] was 1.544. The “Z Score” value [6] was −1.544, the “Linear Ratio” value (Cysteamine, 6-weeks) was 1.157 and the “VIP Score” value (Cysteamine, 6-weeks) was 2.060. For the same compound, the “Z Abs” value (Cysteamine, 6-weeks) was 2.007, the “Z Score” value (Cysteamine, 6-weeks) was 2.007 and the “Linear Ratio” value (Cytosine, 6-weeks) was 1.932. The “VIP Score” value (Cytosine, 6-weeks) was 2.442, the “Z Abs” value (Cytosine, 6-weeks) was 2.582 and the “Z Score” value (Cytosine, 6-weeks) was 2.582. For the same compound, the “Linear Ratio” value (Decanoylcarnitine, 6-weeks) was 0.644, the “VIP Score” value (Decanoylcarnitine, 6-weeks) was 1.617 and the “Z Abs” value (Decanoylcarnitine, 6-weeks) was 1.157. For the same compound, the “Z Score” value (Decanoylcarnitine, 6-weeks) was −1.157, the “Linear Ratio” value [7] was 0.864 and the “VIP Score” value [7] was 1.915. The “Z Abs” value [7] was 1.583, the “Z Score” value [7] was −1.583 and the Decreased [8] was 4. The “Fold Enrichment (Obs/Exp)” value [8] was 2.2, the “Fraction of Impact … (% of 119.7)” value [8] was 6% and the “Impact (Sum VIP Score)” value [8] was 7.1. For the same compound, the Increased [8] was 0, the “Observed Hits in the Top 61 Metabolites” value [8] was 4 and the Decreased [9] was 1. The “Fold Enrichment (Obs/Exp)” value [9] was 1.8, the “Fraction of Impact … (% of 119.7)” value [9] was 1% and the “Impact (Sum VIP Score)” value [9] was 1.7. For the same compound, the Increased [9] was 0, the “Observed Hits in the Top 61 Metabolites” value [9] was 1 and the Decreased [10] was 1. The “Fold Enrichment (Obs/Exp)” value [10] was 0.2, the “Fraction of Impact … (% of 119.7)” value [10] was 2% and the “Impact (Sum VIP Score)” value [10] was 1.8. The Increased [10] was 0, the “Observed Hits in the Top 61 Metabolites” value [10] was 1 and the Decreased [11] was 3. For the same compound, the “Fold Enrichment (Obs/Exp)” value [11] was 0.7, the “Fraction of Impact … (% of 94.6)” value [11] was 5% and the “Impact (Sum VIP Score)” value [11] was 5.0.
